Reference: ChEMBL document CHEMBL4417631, “Oral peptide inhibitors of interleukin-23 receptor and their use to treat inflammatory bowel diseases” (2017)
*1 amine or outer side, *2 acyl side, *3 side chain or, on linkers, in order; H or OH if unused. Where a SMILES comes first, the peptide text is derived from it. Bridges are numbered along the chain shown (N, C = ends). [ ]: non-standard residue; d: D form. Abu(4-yl) = O=C([C@H](CC[*:3])N[*:1])[*:2]; Pen = CC(C)(S)[C@H](N)C(=O)O; hLeu = CC(C)CC[C@H](N)C(=O)O

What was measured:
[1] = biological target: T1, Interleukin-23 receptor (Homo sapiens, UniProt Q5VWK5); test: Inhibition of interleukin-23 binding to human interleukin-23 receptor incubated for 2 hrs by competitive binding ELISA
T1 sequence (Q5VWK5 whole entry): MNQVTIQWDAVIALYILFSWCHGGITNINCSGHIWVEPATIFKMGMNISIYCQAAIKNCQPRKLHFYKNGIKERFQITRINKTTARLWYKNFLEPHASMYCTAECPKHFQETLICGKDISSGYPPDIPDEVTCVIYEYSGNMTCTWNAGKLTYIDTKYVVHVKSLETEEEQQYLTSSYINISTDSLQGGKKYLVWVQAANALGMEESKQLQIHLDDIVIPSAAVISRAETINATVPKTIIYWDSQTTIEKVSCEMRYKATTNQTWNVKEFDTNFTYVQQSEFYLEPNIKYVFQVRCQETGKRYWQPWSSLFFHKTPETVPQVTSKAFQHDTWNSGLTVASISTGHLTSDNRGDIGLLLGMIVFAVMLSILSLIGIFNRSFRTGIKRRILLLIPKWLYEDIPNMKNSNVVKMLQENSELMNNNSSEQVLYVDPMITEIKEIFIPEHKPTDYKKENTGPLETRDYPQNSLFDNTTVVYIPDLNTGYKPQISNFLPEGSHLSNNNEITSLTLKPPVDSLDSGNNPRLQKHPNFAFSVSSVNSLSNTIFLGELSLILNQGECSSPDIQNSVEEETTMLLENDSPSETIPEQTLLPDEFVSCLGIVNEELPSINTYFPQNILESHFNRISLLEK

[2] = Half life in simulated intestinal fluid at 20 uM by LC-MS/MS analysis; type: ADME
[3] = biological target: T1, Interleukin-23 receptor; test: Inhibition of interleukin-23 receptor in human DB cells assessed as reduction in IL-23-stimulated STAT3 phosphorylation incubated for 30 mins by HTRF assay; type: cell-based

Row | Compound | IC50 [1] [µM] | half-life at 20 µM [2] [h] | IC50 [3] [µM]
1 | COc1ccc(CC[C@H](NC(=O)[C@@H]2CSCC[C@H](NC(C)=O)C(=O)N[C@@H](CCC(N)=O)C(=O)N[C@@H]([C@@H](C)O)C(=O)N[C@@H](Cc3c[nH]c4ccccc34)C(=O)N[C@@H](CCC(N)=O)C(=O)N2)C(=O)N[C@@H](Cc2ccc3ccccc3c2)C(=O)N[C@@](C)(CCCCN)C(=O)N[C@@H](CCCCNC(C)=O)C(=O)N[C@@H](CC(N)=O)C(=O)NCC(N)=O)cc1OC | > 1 | 3 to 6 | –
2 | COc1ccc(C[C@H](NC(=O)[C@@H]2CSCC[C@H](NC(C)=O)C(=O)N[C@@H](CCC(N)=O)C(=O)N[C@@H]([C@@H](C)O)C(=O)N[C@@H](Cc3c[nH]c4ccccc34)C(=O)N[C@@H](CCC(N)=O)C(=O)N2)C(=O)N[C@@H](Cc2ccc3ccccc3c2)C(=O)N[C@@H](CCCN)C(=O)N[C@@H](CCCCNC(C)=O)C(=O)N[C@@H](CC(N)=O)C(=O)NCC(N)=O)cc1 | 0.1 to 1 | > 6 | –
3 | CCCCCCCC[C@H](NC(=O)[C@@H]1CSCC[C@H](NC(C)=O)C(=O)N[C@@H](CCC(N)=O)C(=O)N[C@@H]([C@@H](C)O)C(=O)N[C@@H](Cc2c[nH]c3ccccc23)C(=O)N[C@@H](CCC(N)=O)C(=O)N1)C(=O)N[C@@H](Cc1ccc2ccccc2c1)C(=O)N[C@@](C)(CCCCN)C(=O)N[C@@H](CCCCNC(C)=O)C(=O)N[C@@H](CC(N)=O)C(=O)NCC(N)=O | 10 | < 1 | –
4 | CCCCCCCC[C@H](NC(=O)[C@H](Cc1ccc(OC)cc1)NC(=O)[C@@H]1CSCC[C@H](NC(C)=O)C(=O)N[C@@H](CCC(N)=O)C(=O)N[C@@H]([C@@H](C)O)C(=O)N[C@@H](Cc2c[nH]c3ccccc23)C(=O)N[C@@H](CCC(N)=O)C(=O)N1)C(=O)N[C@@](C)(CCCCN)C(=O)N[C@@H](CCCCNC(C)=O)C(=O)N[C@@H](CC(N)=O)C(=O)NCC(N)=O | 10 | 1 to 2 | –
5 | CC(=O)N[C@H](C(=O)N[C@@H](CCC(N)=O)C(=O)N[C@H](C(=O)N[C@@H](Cc1c[nH]c2ccccc12)C(=O)N[C@@H](CCC(N)=O)C(=O)N[C@H](C(=O)N[C@@H](Cc1ccc(O)cc1)C(=O)N[C@@H](Cc1c[nH]c2ccccc12)C(=O)N(C)[C@@H](CCCNC(=N)N)C(=O)N[C@@H](CCC(=O)O)C(=O)N[C@@H](CC(N)=O)C(=O)NCC(N)=O)C(C)(C)S)[C@@H](C)O)C(C)(C)S | > 30 | 2 to 3 | –
6 | CC(=O)N[C@@H](CS)C(=O)N[C@@H](CCC(N)=O)C(=O)N[C@H](C(=O)N[C@@H](Cc1c[nH]c2ccccc12)C(=O)N[C@@H](CCC(N)=O)C(=O)N[C@H](C(=O)N[C@@H](Cc1ccc(O)cc1)C(=O)N[C@@H](Cc1c[nH]c2ccccc12)C(=O)N[C@H](CC(N)=O)C(=O)N[C@@H](CCC(=O)O)C(=O)N[C@@H](CC(N)=O)C(=O)NCC(N)=O)C(C)(C)S)[C@@H](C)O | 1 to 10 | < 1 | –
7 | CC(=O)NCCCC[C@H](NC(=O)[C@](C)(CCCCN)NC(=O)[C@H](Cc1ccc2ccccc2c1)NC(=O)[C@H](Cc1ccc(Oc2ccccc2)cc1)NC(=O)[C@@H]1CSCC[C@H](NC(C)=O)C(=O)N[C@@H](CCC(N)=O)C(=O)N[C@@H]([C@@H](C)O)C(=O)N[C@@H](Cc2c[nH]c3ccccc23)C(=O)N[C@@H](CCC(N)=O)C(=O)N1)C(=O)N[C@@H](CC(N)=O)C(=O)NCC(N)=O | 0.1 to 1 | > 6 | –
8 | CC(=O)NC[C@H](NC(=O)[C@H](CCCN)NC(=O)[C@H](Cc1ccc2ccccc2c1)NC(=O)[C@H](Cc1ccc(OCCN)cc1)NC(=O)[C@@H]1CSCC[C@H](NC(C)=O)C(=O)N[C@@H](CCC(N)=O)C(=O)N[C@@H]([C@@H](C)O)C(=O)N[C@@H](Cc2c[nH]c3ccccc23)C(=O)N[C@@H](CCC(N)=O)C(=O)N1)C(=O)N[C@@H](CC(N)=O)C(=O)NCC(N)=O | 0.025 to 0.1 | < 1 | –
9 | CC(=O)N[C@H]1CCSC[C@@H](C(=O)N[C@@H](Cc2ccc(O)cc2)C(=O)N[C@@H](Cc2c[nH]c3ccccc23)C(=O)N[C@@H](CCC(C)C)C(=O)N[C@@H](CCC(=O)O)C(=O)N[C@@H](CC(N)=O)C(=O)NCC(N)=O)NC(=O)[C@H](CCC(N)=O)NC(=O)[C@H](Cc2c[nH]c3ccccc23)NC(=O)[C@H]([C@@H](C)O)NC(=O)[C@H](CCC(N)=O)NC1=O | 0.025 to 0.1 | < 1 | 0.01 to 0.025
10 | CC(=O)N[C@H](C(=O)N[C@@H](CCC(N)=O)C(=O)N[C@H](C(=O)N[C@@H](Cc1c[nH]c2ccccc12)C(=O)N[C@@H](CCC(N)=O)C(=O)N[C@H](C(=O)N[C@@H](Cc1ccc(O)cc1)C(=O)N[C@@H](Cc1c[nH]c2ccccc12)C(=O)N[C@H](CC(N)=O)C(=O)N[C@@H](CCC(=O)O)C(=O)N[C@@H](CC(N)=O)C(=O)NCC(N)=O)C(C)(C)S)[C@@H](C)O)C(C)(C)S | 1 to 10 | 3 to 6 | –
11 | CC(=O)N[C@H]1CCSC(C)(C)[C@@H](C(=O)N[C@@H](Cc2ccc(O)cc2)C(=O)N[C@@H](Cc2c[nH]c3ccccc23)C(=O)N[C@@H](CCC(C)C)C(=O)N[C@@H](CCC(=O)O)C(=O)N[C@@H](CC(N)=O)C(=O)NCC(N)=O)NC(=O)[C@H](CCC(N)=O)NC(=O)[C@H](Cc2c[nH]c3ccccc23)NC(=O)[C@H]([C@@H](C)O)NC(=O)[C@H](CCC(N)=O)NC1=O (Ac-[Abu(4-yl)]QTWQ[Pen]YW[hLeu]ENG-NH2; thioether 1-6) | > 1 | < 1 | –
12 | CC(=O)N[C@H]1CCSC[C@H](C(=O)N[C@@H](Cc2ccc(O)cc2)C(=O)N[C@@H](Cc2c[nH]c3ccccc23)C(=O)N[C@@H](CCC(C)C)C(=O)N[C@@H](CCC(=O)O)C(=O)N[C@@H](CC(N)=O)C(=O)NCC(N)=O)NC(=O)[C@H](CCC(N)=O)NC(=O)[C@H](Cc2c[nH]c3ccccc23)NC(=O)[C@H]([C@@H](C)O)NC(=O)[C@H](CCC(N)=O)NC1=O | > 1 | 1 to 2 | –
13 | CC(=O)NCCCC[C@H](NC(=O)[C@](C)(CCCCN)NC(=O)[C@H](Cc1ccc2ccccc2c1)NC(=O)[C@H](Cc1ccc(Cl)c(Cl)c1)NC(=O)[C@@H]1CSCC[C@H](NC(C)=O)C(=O)N[C@@H](CCC(N)=O)C(=O)N[C@@H]([C@@H](C)O)C(=O)N[C@@H](Cc2c[nH]c3ccccc23)C(=O)N[C@@H](CCC(N)=O)C(=O)N1)C(=O)N[C@@H](CC(N)=O)C(=O)NCC(N)=O | 0.1 to 1 | 2 to 3 | 0.025 to 0.1
14 | CC(=O)N[C@H]1CCSC[C@@H](C(=O)N[C@@H](Cc2ccc(OCCN)cc2)C(=O)N[C@@H](Cc2ccc3ccccc3c2)C(=O)N[C@@H](CCCN)C(=O)N[C@@H](CN)C(=O)N[C@@H](CC(N)=O)C(=O)NCC(N)=O)NC(=O)[C@H](CCC(N)=O)NC(=O)[C@H](Cc2c[nH]c3ccccc23)NC(=O)[C@H]([C@@H](C)O)NC(=O)[C@H](CCC(N)=O)NC1=O | 0.025 to 0.1 | < 1 | 0.025 to 0.1
15 | CC(=O)NC[C@H](NC(=O)[C@H](CCCN)NC(=O)[C@H](Cc1c[nH]c2ccccc12)NC(=O)[C@H](Cc1ccc(OCCN)cc1)NC(=O)[C@@H]1CSCC[C@H](NC(C)=O)C(=O)N[C@@H](CCC(N)=O)C(=O)N[C@@H]([C@@H](C)O)C(=O)N[C@@H](Cc2c[nH]c3ccccc23)C(=O)N[C@@H](CCC(N)=O)C(=O)N1)C(=O)N[C@@H](CC(N)=O)C(=O)NCC(N)=O | 0.1 to 1 | < 1 | –
16 | CC(=O)N[C@H]1CCSC[C@@H](C(=O)N[C@@H](Cc2ccc(OCCN)cc2)C(=O)N[C@@H](Cc2c[nH]c3ccccc23)C(=O)N[C@@H](CCCN)C(=O)N[C@@H](CN)C(=O)N[C@@H](CC(N)=O)C(=O)NCC(N)=O)NC(=O)[C@H](CCC(N)=O)NC(=O)[C@H](Cc2c[nH]c3ccccc23)NC(=O)[C@H]([C@@H](C)O)NC(=O)[C@H](CCC(N)=O)NC1=O | 0.1 to 1 | < 1 | –
17 | CC(=O)NCCCC[C@H](NC(=O)[C@H](CCCN)NC(=O)[C@H](Cc1ccc2ccccc2c1)NC(=O)[C@H](Cc1ccc(OCCN)cc1)NC(=O)[C@@H]1CSCC[C@H](NC(C)=O)C(=O)N[C@@H](CCC(N)=O)C(=O)N[C@@H]([C@@H](C)O)C(=O)N[C@@H](Cc2c[nH]c3ccccc23)C(=O)N[C@@H](CCC(N)=O)C(=O)N1)C(=O)N[C@@H](CC(N)=O)C(=O)NCC(N)=O | 0.01 to 0.025 | < 1 | 0.01 to 0.025
18 | CC(=O)N[C@H]1CCSC[C@@H](C(=O)N[C@@H](Cc2ccc(OCCN)cc2)C(=O)N[C@@H](Cc2c[nH]c3ccccc23)C(=O)N[C@@H](CCCN)C(=O)N[C@@H](CCC(=O)O)C(=O)N[C@@H](CC(N)=O)C(=O)NCC(N)=O)NC(=O)[C@H](CCC(N)=O)NC(=O)[C@H](Cc2c[nH]c3ccccc23)NC(=O)[C@H]([C@@H](C)O)NC(=O)[C@H](CCC(N)=O)NC1=O | 0.025 to 0.1 | < 1 | –
19 | CC(=O)NCCCC[C@H](NC(=O)[C@](C)(CCCCN)NC(=O)[C@H](Cc1ccc2ccccc2c1)NC(=O)[C@H](Cc1c(C)cc(O)cc1C)NC(=O)[C@@H]1CSCC[C@H](NC(C)=O)C(=O)N[C@@H](CCC(N)=O)C(=O)N[C@@H]([C@@H](C)O)C(=O)N[C@@H](Cc2c[nH]c3ccccc23)C(=O)N[C@@H](CCC(N)=O)C(=O)N1)C(=O)N[C@@H](CC(N)=O)C(=O)NCC(N)=O | > 1 | > 6 | –
